Measured values from US20250034161A1, “SPIROCYCLIC COMPOUND AS KRAS-G12C INHIBITOR” (Shanghai Euregen Biopharma Co., Ltd., priority 2020, published 2025).

Columns and labels:
CYP 2C9 = CYP 2C9 (Homo sapiens, UniProt P11712); test: CYP inhibition test, human liver microsomes, CYP2C9
Protocol: • 1. Test purpose: to evaluate the inhibitory ability of some of the example compounds of the present invention against CYP1A2, 2B6, 2C8, 2C9, 2C19, 2D6 and 3A4 via human liver microsomes. • 2. […] Test method:
• 1. K/Mg buffer: the components were 0.1 mol/L potassium phosphate and 5 mmol/L magnesium chloride with pH 7.4±0.1, preheated. • 2. Solution of the test compound: the test compound was dissolved in dimethyl sulfoxide to prepare a stock solution of 10 mmol/L. 8 μL of 10 mmol/L stock solution was transferred to a 96-well plate containing 12 μL of acetonitrile as the highest concentration point, at 3-fold dilution, for 8 concentrations. • 3. NADPH solution: 66.7 mg of NADPH was dissolved in 10 mL of 0.1 mol/L K/Mg buffer to obtain 8 mmol/L NADPH solution with pH 7.4. • 4. Human liver microsomal stock solution: human liver microsomes were dissolved in 0.1 mol/L K/Mg buffer to obtain 20 mg/mL stock solution. • 5. Human liver microsomal working solution: 10 μL of 20 mg/mL human liver microsomal stock solution was taken and added into 990 μL of 0.1 mol/L K/Mg buffer to prepare 0.2 mg/mL human liver microsomal solution. • 6. […]

[1] = Brain tissue distribution test; format: in vivo; details: SD rats, PO 20 mg/kg
Protocol: 5 g of methyl cellulose was weighed and dissolved in 1000 mL of purified water to obtain 0.5% methyl cellulose. A required amount of the test compound was weighed and dissolved in 0.5% methylcellulose solution to obtain a suspension of 2 mg/mL.
Administration: SD rats were orally administered (PO) after overnight fasting. Feeding 4 hours after administration.
Sample Collection: 0.5 mL of blood was collected at each time point via the jugular vein. Samples were placed into tubes containing ethylenediamine tetraacetic acid dipotassium salt (K2EDTA) and kept on ice before centrifugation. Within 1 hour after blood collection, blood samples were centrifuged at 2-8° C. and 6800 g for 6 minutes and stored at −80° C. After the rats were euthanized by carbon dioxide inhalation, the brains of the rats were collected, quickly frozen on dry ice, and stored at −80° C. before bioanalysis. The time points for blood collection were 0.5 and 2 hours after oral administration.

[2] = tested on: phosphorylation level of ERK in NCI-H358 cells; test: NCI-H358 pERK inhibitory activity (HTRF phospho-ERK); format: cell-based; details: Homo sapiens, 1 hour incubation
Protocol: Test purpose: to detect the inhibitory effect of the test compound on the phosphorylation level of ERK in NCI-H358 cells. • 2. […] Test method:
NCI-H358 cells suspension was seeded at 80 μL per well in a clear 96-well cell culture plate, with 10000 cells each well. The cell culture plate was placed in an incubator and incubated overnight at 37° C. under 5% CO2. After incubation, the cell supernatant was discarded, 80 μL of PRMI1640 medium containing 0.02% serum was added to each well, and the cell culture plate was placed in an incubator and incubated overnight at 37° C., under 5% CO2. The test compound was diluted with 100% DMSO to 4 mmol/L as the first concentration, and then diluted 5-fold to the 8th concentration using a pipette. 2 μL of compound or DMSO (as negative control) was taken and added with 158 μL of cell culture medium. After mixing evenly, 20 μL of the compound solution was taken and added to corresponding cell plate well. […] After incubation, the signals at 615 nm and 665 nm were read using a multi-label analyzer. The percent inhibition was calculated according to the following formula: Ratio=(signal 665 nm/signal 615 nm)×10000; the percent inhibition=(ratio of test compound-ratio of negative control)/(ratio of blank-ratio of negative control)×100%.

[3] = Pharmacokinetics study in mice (IV and PO); format: in vivo; details: ICR male mice
Protocol: Preparation of 0.5% methyl cellulose: 5 g of methyl cellulose were weighed and dissolved in 1000 mL of purified water.
Preparation of oral formulation: a required amount of the test compound was weighed and dissolved in 0.5% methyl cellulose solution to obtain a suspension or solution of 0.5 mg/mL.
Preparation of intravenous injection formulation: a required amount of test compound was weighed, and dissolved in 0.5 mL of dimethyl sulfoxide to prepare a solution of 4 mg/mL. 0.06 mL of the above solution was taken, and 0.12 mL of polyethylene glycol 15 hydroxystearate (solutol) and 1.02 mL of normal saline were added thereto to obtain a solution of 0.2 mg/mL.
Feeding 4 hours after administration.
Sample Collection: blood was collected via the jugular vein or other suitable vein, and 0.03 mL blood was collected at each time point. Samples were placed into tubes containing ethylenediaminetetraacetic acid dipotassium salt and kept on ice before centrifugation. Within 1 hour after blood collection, the blood samples were centrifuged at 2-8° C. and 6800 g for 6 minutes and stored at −80° C. The time points for blood collection were 0.083, 0.25, 0.5, 1, 2, 4, 8 and 24 hours after intravenous and oral administration.

[4] = mouse, plasma, intravenous injection, 1 mg/kg
[5] = mouse, plasma, oral gavage, 5 mg/kg

CYP 2C9, sequence (P11712 whole entry): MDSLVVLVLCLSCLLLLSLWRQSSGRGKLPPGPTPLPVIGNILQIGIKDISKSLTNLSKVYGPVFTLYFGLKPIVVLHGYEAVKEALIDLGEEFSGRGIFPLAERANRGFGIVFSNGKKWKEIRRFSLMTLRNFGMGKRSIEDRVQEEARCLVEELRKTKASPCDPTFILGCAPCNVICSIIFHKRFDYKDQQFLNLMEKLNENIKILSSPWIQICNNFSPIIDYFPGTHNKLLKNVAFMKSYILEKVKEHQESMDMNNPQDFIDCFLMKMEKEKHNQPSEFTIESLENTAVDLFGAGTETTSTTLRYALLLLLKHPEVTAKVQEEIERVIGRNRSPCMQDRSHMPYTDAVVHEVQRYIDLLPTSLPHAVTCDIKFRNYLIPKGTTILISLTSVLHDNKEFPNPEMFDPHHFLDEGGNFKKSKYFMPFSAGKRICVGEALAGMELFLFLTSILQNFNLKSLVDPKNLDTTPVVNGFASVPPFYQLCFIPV

Compound	IC50 (CYP 2C9) [µM]	Brain concentration 0.5 hours after administration (ng/g) ([1]; 0.5 hours)	Brain concentration 2 hours after administration (ng/g) ([1]; 2 hours)	IC50 [2] [µM]	F ([3]; oral gavage, 5 mg/kg) [%]	AUC(0-inf) [3, 4] [ng·h/mL]	Cmax [3, 4] [ng/mL]	clearance [3, 4] [mL/min/kg]	half-life [3, 4] [min]	Vd ([3]; mouse, plasma, intravenous injection, 1 mg/kg, read-out: Vz) [L/kg]	AUC(0-inf) [3, 5] [ng·h/mL]	Cmax [3, 5] [ng/mL]	half-life [3, 5] [min]	concentration at 0.5 h ([1]; Sprague-Dawley (SD), rat, brain, 0.5 hours, read-out: Brain concentration 0.5 hours after administration) [ng/g]	concentration at 2 h ([1]; Sprague-Dawley (SD), rat, brain, 2 hours, read-out: Brain concentration 2 hours after administration) [ng/g]
C=CC(=O)N1CCN(c2nc(=O)n(-c3c(C)ccnc3C(C)C)c3nc(-c4c(O)cccc4F)c(F)cc23)[C@@H](C)C1 [AMG510]	> 10	Below detection limit	Below detection limit	0.0883	0.33	227	623	74.7	13.2	1.42	6.12	7.25	21.6	–	–
C=C(F)C(=O)N1CCN(c2nc(OC[C@@H]3CCCN3C)nc3c2CCN(c2cccc4cccc(Cl)c24)C3)C[C@@H]1CC#N [MRTX849]	1.35	–	–	–	–	–	–	–	–	–	–	–	–	8	69.8
